# Assays:
# [1] = test system: RR cells (human foreskin fibroblasts); assay: Growth and lifespan of RR cells passaged in medium with carnosine; type: cell-based; details: for fibroblast morphology: after many population doublings; for time still growing: continuous
# Description: (§1) Cells were grown in Dulbecco's modification of Eagles' Minimal Essential Medium, with 10% fetal calf serum. When cells became confluent and ceased division, they were harvested with trypsin - versene, and dispersed to form a suspension of single cells which was counted with a Coulter Counter. Depending on the cell yield the culture was split in a ratio of 1:2, 1:4, or 1:8. These split ratios correspond approximately to one, two or three cell population doublings when the new cultures become confluent. The exact number of population doublings is calculated from the cell yield at each sub-culture.
# Initially, human foreskin fibroblasts were obtained from Dr Roger Reddel (Children's Medical Research Foundation) at passage 5, flasks were set up with differing concentrations of carnosine (10mM, 20mM, 30mM and 50mM) together with control cultures. Each of the cultures were passaged in the same medium.
# MRC-5 cells [2] = assay: Longevity experiment, MRC-5 cells grown continuously in medium supplemented with carnosine; type: cell-based, human; details: for longevity: continuous, controls ceased growth at 57 and 61 PDs
# Description: as §1
# MRC-5 is a very well characterised fibroblast strain derived from foetal lung tissue. Early passage cultures were obtained from the National Institute for Biological Standards and Control, South Mimms, Herts, U.K. Longevity experiments were set up using normal medium and medium supplemented with 20 and 30mM carnosine (medium was the same as for RR cells above). […] The control cells became senescent at the expected time, namely after about 50 - 55 PDs, and they ceased growth at 57 and 61 PDs. […] It should be noted that the PD level is a logarithmic measure of growth, so an increase of 10 PDs represents an increase in cell mass of 2^10, or x 1,000.
# MRC-5 cells [3] = assay: Transfer of senescent MRC-5 cells from normal medium to carnosine medium at PD level 55; type: cell-based, human
# Description: as §1
# Remarkably, these cells are continuing to grow after 400 days (Figure 8), whereas cells grown continuously in carnosine died out after 139 days. Thus it appears that transfer of senescent cells to carnosine can reverse the senescent phenotype and allow extended growth of cells with a near normal morphology (Figures 10, 11 and 12).
# [4] = transferred at PD level 55 to 20mM carnosine
# [5] = transferred at PD level 55 to 30mM carnosine
smiles,measurement,setting,value
"NCCC(=O)N[C@@H](Cc1c[nH]cn1)C(=O)O [carnosine, β-alanyl-L-histidine]",growth rate,"[1]; 10mM carnosine added to standard medium, versus control cultures",grew as rapidly as control cultures
same,growth rate,"[1]; 20mM carnosine added to standard medium, versus control cultures",grew as rapidly as control cultures
same,growth rate,[1]; 30mM carnosine,some reduction in growth rate
same,fibroblast morphology,[1]; 30mM carnosine,retained their characteristic fibroblast morphology
same,time still growing,[1]; 30mM carnosine,> 500 days
same,growth rate,[1]; 50mM carnosine,a great reduction
same,fibroblast morphology,[1]; 50mM carnosine,retained their characteristic fibroblast morphology
same,time still growing,[1]; 50mM carnosine,> 500 days
same,PD level of cells growing continuously,MRC-5 cells [2]; 20mM carnosine (Figure 7),67 PD
same,growth rate in the initial stage,MRC-5 cells [2]; 20mM carnosine versus normal medium,little difference in growth rate
same,longevity,MRC-5 cells [2]; 20mM carnosine,very significantly increased longevity
same,growth rate in the initial stage,MRC-5 cells [2]; 30mM carnosine versus normal medium,little difference in growth rate
same,longevity,MRC-5 cells [2]; 30mM carnosine,very significantly increased longevity
same,number of cells per flask,MRC-5 cells [2]; as the end of the culture lifespan approaches,significantly increases the number of cells per flask
same,morphological features of senescence,"MRC-5 cells [2]; carnosine medium, Figure 7 compared with Figure 6",delayed the normal morphological features of senescence
same,time until cells died out,MRC-5 cells [2]; cells grown continuously in carnosine,139 days
same,PDs reached after transfer,"MRC-5 cells [3]; 20mM carnosine, 146 days after transfer (Figure 11)",64 PDs
same,PDs reached after transfer,"MRC-5 cells [3]; 30mM carnosine, 146 days after transfer (Figure 12)",63 PDs
same,effect in increasing cell yield,MRC-5 cells [3]; cells transferred from normal medium to 30mM carnosine medium (Figure 9),particularly striking
same,phenotype after transfer,MRC-5 cells [3]; [4],"continued to grow slowly, but with a rejuvenated phenotype"
same,time continuing to grow,MRC-5 cells [3]; [4],> 400 days
same,phenotype after transfer,MRC-5 cells [3]; [5],"continued to grow slowly, but with a rejuvenated phenotype"
same,time continuing to grow,MRC-5 cells [3]; [5],> 400 days
